Test results taken from patent US6541463B1, “Inhibitors of type 5 and type 3 17β-hydroxysteroid dehydrogenase and methods for their use” (Endorecherche, Inc., priority 1998, dated 2003).

Tests used:
[1] = tested on: Shionogi mouse mammary carcinoma cells; test: Androgenic activity: stimulation of proliferation of Shionogi cells; assay type: cell-based
Summary of the method: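 Shionogi mouse mammary carcinoma cells, at 20 000 cells/well in medium with 5% charcoal-stripped FCS, were grown 10–12 days with the inhibitor at 10^−7 M and 10^−6 M in triplicate. Medium was changed every 3–4 days. Proliferation was read by Coulter counting and given as % stimulation.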

[2] = target: T1, human type 2 17β-hydroxysteroid dehydrogenase (Homo sapiens, UniProt P37059); test: Enzymatic assay for type 2 17β-HSD; assay type: biochemical; conditions: for Inhibition Type 2 17β-HSD Activity [% Inh.]: at 3.10^-8M; for IC50 / inhibition / Inhibition Type 2 17β-HSD Activity [% Inh. at 3 · 10^−8M]: Table 4′; for IC50: read-out: Inhibition Type 2 17β-HSD Activity IC50; for inhibition / Inhibition Type 2 17β-HSD Activity [% Inh. at 3 · 10^−8M]: bracketed values, 3 · 10^−8M; for inhibition: read-out: Inhibition Type 2 17β-HSD Activity [% Inh. at 3 · 10^−8M]
T1 construct: expressed in transfected cells; host or cells: 293 cells, transient transfection; microsomal fraction (100 000×g pellet)
T1 sequence (P37059 1-387): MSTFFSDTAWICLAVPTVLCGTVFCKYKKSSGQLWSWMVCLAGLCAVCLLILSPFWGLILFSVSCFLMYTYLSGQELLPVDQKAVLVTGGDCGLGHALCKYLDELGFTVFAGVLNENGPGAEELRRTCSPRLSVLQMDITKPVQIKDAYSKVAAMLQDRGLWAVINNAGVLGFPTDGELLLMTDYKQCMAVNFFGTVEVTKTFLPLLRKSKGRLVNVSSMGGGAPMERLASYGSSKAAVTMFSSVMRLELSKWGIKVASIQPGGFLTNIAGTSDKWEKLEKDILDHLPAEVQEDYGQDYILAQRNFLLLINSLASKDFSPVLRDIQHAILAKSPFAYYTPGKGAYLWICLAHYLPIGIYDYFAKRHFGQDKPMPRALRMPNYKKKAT
Summary of the method: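 Enzymes from transiently transfected 293 cells (cytosol for type 1, microsomes for types 2 and 3 17β-HSD) were incubated 1 h at 37° C in pH 7.4 phosphate/20% glycerol with 2 mM NADPH or NAD+ and 0.1 μM 14C-substrate (estrone, 4-dione, or DHT for 3α-HSD); metabolites quantified by TLC; preliminary % inhibition at 3.10^−6M.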

SMILES	Androgenic Activity Shionogi, Basal E^−6 ([1]; Table 4′, E^−6) [%]	Androgenic Activity Shionogi, Basal E^−7 ([1]; Table 4′, E^−7)	IC50 [2] [µM]	inhibition [2] [%]	also measured
COc1ccc(CC(=O)O[C@]2(C(C)=O)CCC3C4C=C(C)C5=CC(=O)C=C[C@]5(C)C4CC[C@@]32C)cc1 (stereo partly drawn) [EM-1291]	–	–	–	–	Androgenic Activity Shionogi, Basal ([1]; E^−6): −44; Androgenic Activity Shionogi, Basal ([1]; E^−7): −8; Inhibition Type 2 17β-HSD Activity [% Inh.] [2]: [67] %
COCCOc1cc2c(cc1Cl)C1CCC3(C)C(CCC34CCC(C)(C)C(=O)O4)C1CC2 (stereo not drawn) [EM-1371-CS]	92	58%	> 10	–	–
CC1CCC2(CCC3C4CCc5ccccc5C4CCC32C)OC1=O (stereo not drawn) [EM-1025]	0	5%	–	64	–
COc1cc2c(cc1C)C1CCC3(C)C(CCC34CCC(C)(C)C(=O)O4)C1CC2 (stereo not drawn) [EM-1412-CS]	−11	0%	> 10	–	–
CC(=O)[C@@]1(OC(=O)CCCCF)CCC2C3C=C(C)C4=CC(=O)CC[C@]4(C)C3CC[C@@]21C (stereo partly drawn) [EM-1195-CS]	–	–	–	–	Androgenic Activity Shionogi, Basal ([1]; E^−6): −34; Androgenic Activity Shionogi, Basal ([1]; E^−7): −27; Inhibition Type 2 17β-HSD Activity [% Inh.] [2]: [40] %
COCCOc1cc2c(cc1C(F)(F)F)[C@H]1CC[C@@]3(C)[C@@H](CC[C@@]34CCC(C)(C)C(=O)O4)[C@@H]1CC2 [EM-1438, 3-(2′-Methoxyethoxy)-2-trifluoromethyl-1,3,5(10)-estratrien-17(R)-spiro-2′-(5′,5′-dimethyl-6′-oxo)tetrahydropyran]	−14	10%	–	–	Inhibition Type 2 17β-HSD Activity [% Inh. at 3 · 10^−8M] [2]: [72] %
CC1(C)CC[C@@]2(CC[C@H]3[C@@H]4CCc5c(cc(Br)c(O)c5Br)[C@H]4CC[C@@]32C)OC1=O [EM-1382-CS]	0	0%	–	–	Inhibition Type 2 17β-HSD Activity [% Inh. at 3 · 10^−8M] [2]: [70] %
CC1(C)CC[C@@]2(CCC3C4CCc5cc6oncc6cc5C4CC[C@@]32C)OC1=O (stereo partly drawn) [EM-1407-CS, 1,3,5(10)-estratrien-(2,3-oximino)-17(R)-spiro-2′-(5′,5′-dimethyl-6′-oxo)tetrahydropyran]	−23	0%	–	68	–
CC1(C)CCC2(CCC3C4CCc5cc(OS(C)(=O)=O)ccc5C4CCC32C)OC1=O (stereo not drawn) [EM-1365-CS]	−28	4%	> 10	–	–
COc1c(Br)cc2c(c1Br)CCC1C2CCC2(C)C1CCC21CCC(C)(C)C(=O)O1 (stereo not drawn) [EM-1385-CS]	−28	−11%	> 10	–	–
COc1cc2c(cc1C(F)(F)F)C1CCC3(C)C(CCC34CCC(C)(C)C(=O)O4)C1CC2 [EM-1409, 3-Methoxy-2-trifluoromethyl-1,3,5(10)-estratrien-17(R)-spiro-2′-(5′,5′-dimethyl-6′-oxo)tetrahydropyran]	−23	5%	–	4	–
C[C@]12CCC3c4ccc(O)cc4CCC3C1CC[C@@]21CCCC(=O)O1 (stereo partly drawn) [EM-919, 1,3,5(10)-estratrien-3-ol-17(R)-spiro-2′(6′-oxo)tetrahydropyran]	−17	+73%	–	86	–
COC(=O)c1cc2c(cc1O)CCC1C2CCC2(C)C1CCC21CCC(C)(C)C(=O)O1 (stereo not drawn) [EM-01662]	−27	0%	–	70	–
CC1(C)CCC2(CCC3C4CCc5c(cc(Cl)c(OS(C)(=O)=O)c5Cl)C4CCC32C)OC1=O (stereo not drawn) [EM-1392-CS]	−35	7%	> 10	–	–
CC1(C)CC[C@@]2(CCC3C4CCc5cc(F)ccc5C4CC[C@@]32C)OC1=O (stereo partly drawn) [EM-1157-CS]	−12	16%	> 10	–	–
CC1(C)CC[C@@]2(CCC3C4CCc5cc(C(=O)O)ccc5C4CC[C@@]32C)OC1=O (stereo partly drawn) [EM-1401, 3-Carboxy-1,3,5(10)-estratrien-17(R)-spiro-2′-(5′,5′-dimethyl-6′-oxo)tetrahydropyran]	0	2%	–	76	–

SMILES	Androgenic Activity Shionogi, Basal E^−6 ([1]; Table 4′, E^−6) [%]	Androgenic Activity Shionogi, Basal E^−7 ([1]; Table 4′, E^−7)	IC50 [2] [µM]	inhibition [2] [%]	also measured
CC1(C)CC[C@@]2(CCC3C4CCc5cc(C(N)=O)ccc5C4CCC32C)OC1=O (stereo partly drawn) [EM-1404]	0	0%	> 10	–	–
COCCOc1cc2c(cc1C#N)C1CC[C@@]3(C)C(CC[C@@]34CCC(C)(C)C(=O)O4)C1CC2 (stereo partly drawn) [EM-1396]	−15	0%	> 10	–	–
CC1CCC2(CCC3C4CCc5cc(O)c([N+](=O)[O-])cc5C4CCC32C)OC1=O [EM-1131, 2-Nitro-1,3,5(10)-estratrien-3-ol-17(R)-spiro-2′-(5′-methyl-6′-oxo)tetrahydropyran]	0	0%	–	70	–
CC1(C)CCC2(CCC3C4CCc5cc(OCCN6CCCCC6)ccc5C4CCC32C)OC1=O [EM-1390-CS, 3-(N-piperidyl-ethyl)-1,3,5(10)-estratrien-17(R)-spiro-2′-(5′,5′-dimethyl-6′-oxo)-tetrahydropyran]	−43	−18%	> 10	–	–
CC1CCC2(CCC3C4CCc5cc(O)c([N+](=O)[O-])cc5C4CCC32C)OC1=O [EM-1126, 2-Nitro-1,3,5(10)-estratrien-3-ol-17(R)-spiro-2′-(5′-methyl-6′-oxo)tetrahydropyran]	−8	0%	–	–	Inhibition Type 2 17β-HSD Activity [% Inh. at 3 · 10^−8M] [2]: [59] %
CCC[C@@H]1CC2C3C=CC4=CC(=O)CC[C@]4(C)C3CC[C@]2(C)C1=O (stereo partly drawn) [EM-1097]	–	–	–	–	Androgenic Activity Shionogi, Basal E^−6 ([1]; E^−6): −12; Androgenic Activity Shionogi, Basal E^−7 ([1]; E^−7): 18; inhibition at 3 µM ([2]; 3 · 10^−6 M, value in square brackets, read-out: Inhibition Type 2 17B-HSD Activity [% Inh. at 3 · 10^−6 M]): 53%
COc1ccc2c(c1)C(=O)CC1C3CCC4(CCC(C)(C)C(=O)O4)C3(C)CCC21O (stereo not drawn) [EM-1386]	−17	5%	> 10	–	–
C=CCC1CCC2(CCC3C4CCc5cc(O)ccc5C4CCC32C)OC1=O [PB-132-152, 3-Hydroxy-1,3,5(10)-estratrien-17(R)-2′-(5′-allyl-6′-oxo)tetrahydropyran]	0	39%	–	50	–
COCCOc1cc2c(cc1C(N)=O)C1CC[C@@]3(C)C(CC[C@@]34CCC(C)(C)C(=O)O4)C1CC2 (stereo partly drawn) [EM-1424, 2-Carbamoyl-3-(2″-methoxyethyloxy)-1,3,5(10)-estratrien 17(R)-spiro-2′-(5′,5′-dimethyl-6′-oxo)tetrahydropyran]	−17	0%	> 10	–	–
COCCOc1cc2c(cc1C(=O)OC)C1CC[C@@]3(C)C(CC[C@@]34CCC(C)(C)C(=O)O4)C1CC2 (stereo partly drawn) [EM-1402-CS, 2-Carbomethoxy-3-(2″-methoxyethyloxy)-1,3,5(10)-estratrien 17(R)-spiro-2′-(5′,5′-dimethyl-6′-oxo)tetrahydropyran]	−9	0%	> 10	–	–
COC(=O)C1CCC2(CCC3C4CCc5cc(O)ccc5C4CCC32C)OC1=O [PB-132-146, 3-Hydroxy-1,3,5(10)-estratrien-17(R)-2′-(5′-methoxycarbonyl-6′-oxo)tetrahydropyran]	0	29%	–	75	–
COc1ccc2c(c1)CCC1C2CCC2(C)C1CCC21CCC(C)(C)C(=O)O1 (stereo not drawn) [EM-1370]	−11	12%	–	33	–
CN(C)C(=O)c1cc2c(cc1O)CCC1C2CCC2(C)C1CCC21CCC(C)(C)C(=O)O1 (stereo not drawn) [EM-01661-B]	−13	0%	–	55	–
COc1ccc2c(c1)C(=O)CC1C2CC[C@@]2(C)C1CC[C@@]21CCC(C)(C)C(=O)O1 (stereo partly drawn) [EM-1394]	−12	4%	> 10	–	–
COCCOc1cc2c(cc1C(=O)O)C1CCC3(C)C(CCC34CCC(C)(C)C(=O)O4)C1CC2 [EM-1405, 2-Carboxy-3-(2″-methoxyethyloxy)-1,3,5(10)-estratrien-17(R)-spiro-2′-(5′,5′-dimethyl-6′-oxo)tetrahydropyran]	0	0%	> 10	–	–
CC1(C)CCC2(CCC3C4CCc5cc(O)c(C(N)=O)cc5C4CCC32C)OC1=O (stereo not drawn) [EM-01660]	−31	−4%	–	59	–
